Counter-ions that a name gives are not always drawn.
system: Mycobacterium tuberculosis H37Rv; assay: Mycobacterium tuberculosis H37Rv Inhibition Assay (resazurin MIC); type: cell-based; settings: 144 h, H37Rv strain, six days incubation, resazurin fluorescence after 48 hours, read-out: MIC value

| Compound | MIC |
| --- | --- |
| Cl.Cl.O=C1COc2cc(Cl)c(CNC3CCN(C[C@@H]4Cn5c(=O)ccc6ccc(=O)n4c65)CC3)nc2N1 [Example 32, (1R)-1-[(4-{[(7-Chloro-3-oxo-3,4-dihydro-2H-pyrido[3,2-b][1,4]oxazin-6-yl)methyl]amino}-1-piperidinyl)methyl]-1,2-dihydro-4H,9H-imidazo[1,2,3-ij]-1,8-naphthyridine-4,9-dione dihydrochloride] | < 2 µg/mL |
| O=c1ccc2ccc(=O)n3c2n1C[C@H]3CN1CCC(NCc2cc(F)c3c(c2)OCCO3)CC1 [Example 31, (1R)-1-[(4-{[(8-Fluoro-2,3-dihydro-1,4-benzodioxin-6-yl)methyl]amino}-1-piperidinyl)methyl]-1,2-dihydro-4H,9H-imidazo[1,2,3-ij]-1,8-naphthyridine-4,9-dione hydrochloride] | < 2 µg/mL |
| O=C1CSc2ccc(CNC3CCN(CC4Cn5c(=O)ccc6ccc(=O)n4c65)CC3)cc2N1 (racemic) [Example 12, 1-[(4-{[(3-Oxo-3,4-dihydro-2H-1,4-benzothiazin-6-yl)methyl]amino}-1-piperidinyl)methyl]-1,2-dihydro-4H,9H-imidazo[1,2,3-ij]-1,8-naphthyridine-4,9-dione hydrochloride (2:1 mixture of R:S)] | < 2 µg/mL |

same assay, conditions: 144 h, read-out: MIC value, H37Rv strain, six days incubation, resazurin fluorescence after 48 hours

| Compound | MIC |
| --- | --- |
| O=c1ccc2ccc(=O)n3c2n1C[C@H]3CN1CCC(NCc2ccc3c(c2)OCCC3)CC1 [Example 50, (1R)-1-({4-[(3,4-Dihydro-2H-chromen-7-ylmethyl)amino]-1-piperidinyl}methyl)-1,2-dihydro-4H,9H-imidazo[1,2,3-if]-1,8-naphthyridine-4,9-dione hydrochloride] | < 2 µg/mL |
| O=c1cnc2ccc(=O)n3c2n1C[C@H]3CN1CCC(NCc2cc3c(cn2)OCCS3)CC1 [Example 14, (1R)-1-({4-[(2,3-Dihydro[1,4]oxathiino[2,3-c]pyridin-7-ylmethyl)amino]-1-piperidinyl}methyl)-1,2-dihydro-3H,8H-2a,5,8a-triazaacenaphthylene-3,8-dione hydrochloride] | < 2 µg/mL |
| O=c1ccc2ccc(=O)n3c2n1C[C@H]3CN1CCC(NCc2cc3c(cn2)OCS3)CC1 [Example 5A, (1R)-1-({4-[([1,3]Oxathiolo[5,4-c]pyridin-6-ylmethyl)amino]-1-piperidinyl}methyl)-1,2-dihydro-4H,9H-imidazo[1,2,3-ij]-1,8-naphthyridine-4,9-dione hydrochloride] | < 2 µg/mL |
| O=c1ccc2ccc(=O)n3c2n1C[C@H]3CN1CCC(NCc2cc3c(cn2)CCC3)CC1 [Example 8, (1R)-1-({4-[(6,7-Dihydro-5H-cyclopenta[c]pyridin-3-ylmethyl)amino]-1-piperidinyl}methyl)-1,2-dihydro-4H,9H-imidazo[1,2,3-ij]-1,8-naphthyridine-4,9-dione hydrochloride] | < 2 µg/mL |
| O=c1ccc2ccc(=O)n3c2n1C[C@H]3CN1CCC(NCc2cc3c(cn2)CCCC3)CC1 [Example 7, (1R)-1-({4-[(5,6,7,8-Tetrahydro-3-isoquinolinylmethyl)amino]-1-piperidinyl}methyl)-1,2-dihydro-4H,9H-imidazo[1,2,3-ij]-1,8-naphthyridine-4,9-dione hydrochloride] | < 2 µg/mL |
| O=c1ccc2ncc(=O)n3c2n1C[C@H]3CN1CCC(NCc2cc3c(cn2)OCS3)CC1 [Example 16A, (2R)-2-({4-[([1,3]Oxathiolo[5,4-c]pyridin-6-ylmethyl)amino]-1-piperidinyl}methyl)-1,2-dihydro-3H,8H-2a,5,8a-triazaacenaphthylene-3,8-dione hydrochloride] | < 2 µg/mL |
| O=c1cnc2ccc(=O)n3c2n1C[C@H]3CN1CCC(NCc2cc3c(cn2)OCCC3)CC1 [Example 37, (1R)-1-({4-[(3,4-Dihydro-2H-pyrano[2,3-c]pyridin-6-ylmethyl)amino]-1-piperidinyl}methyl)-1,2-dihydro-3H,8H-2a,5,8a-triazaacenaphthylene-3,8-dione hydrochloride] | < 2 µg/mL |

same assay, conditions: H37Rv strain, six days incubation, resazurin fluorescence after 48 hours, read-out: MIC value

| Compound | MIC |
| --- | --- |
| O=c1ccc2ccc(=O)n3c2n1CC3CN1CCC(NCc2cc3c(cn2)OCCS3)CC1 (racemic) [Example 63] | < 2 µg/mL |
| Cl.N#Cc1cc(CNC2CCN(C[C@@H]3Cn4c(=O)ccc5ncc(=O)n3c54)CC2)cc2c1OCCO2 [Example 42, 7-{[(1-{[(2R)-3,8-Dioxo-1,2-dihydro-3H,8H-2a,5,8a-triazaacenaphthylen-2-yl]methyl}-4-piperidinyl)amino]methyl}-2,3-dihydro-1,4-benzodioxin-5-carbonitrile hydrochloride] | < 2 µg/mL |
| CC1(NCc2cc3c(cn2)OCCS3)CCN(C[C@@H]2Cn3c(=O)ccc4ccc(=O)n2c43)CC1 [Example 23, (1R)-1-({4-[(2,3-Dihydro[1,4]oxathiino[2,3-c]pyridin-7-ylmethyl)amino]-4-methyl-1-piperidinyl}methyl)-1,2-dihydro-4H,9H-imidazo[1,2,3-ij]-1,8-naphthyridine-4,9-dione hydrochloride] | < 2 µg/mL |
| O=c1ccc2ccc(CNC3CCN(C[C@@H]4Cn5c(=O)ccc6ccc(=O)n4c65)CC3)cc2o1 [Example 59, (1R)-1-[(4-{[(2-Oxo-2H-chromen-7-yl)methyl]amino}-1-piperidinyl)methyl]-1,2-dihydro-4H,9H-imidazo[1,2,3-ij]-1,8-naphthyridine-4,9-dione] | < 2 µg/mL |
| O=c1ccc2ncc(=O)n3c2n1C[C@H]3CN1CCC(NCc2cc3c(cn2)SCO3)CC1 [Example 28, (2R)-2-({4-[([1,3]Oxathiolo[4,5-c]pyridin-6-ylmethyl)amino]-1-piperidinyl}methyl)-1,2-dihydro-3H,8H-2a,5,8a-triazaacenaphthylene-3,8-dione hydrochloride] | < 2 µg/mL |

same assay, conditions: read-out: MIC value, H37Rv strain, six days incubation, resazurin fluorescence after 48 hours

| Compound | MIC |
| --- | --- |
| O=C1CSc2cnc(CNC3CCN(C[C@@H]4Cn5c(=O)ccc6ccc(=O)n4c65)CC3)nc2N1 [Example 34, (1R)-1-[(4-{[(7-Oxo-6,7-dihydro-1H-pyrimido[5,4-b][1,4]thiazin-2-yl)methyl]amino}-1-piperidinyl)methyl]-1,2-dihydro-4H,9H-imidazo[1,2,3-ij]-1,8-naphthyridine-4,9-dione dihydrochloride] | < 2 µg/mL |
| O=c1ccc2ccc(=O)n3c2n1C[C@H]3CN1CCC(NCc2nc3cccc(F)c3[nH]2)CC1 [Example 46, (1R)-1-[(4-{[(4-Fluoro-1H-benzimidazol-2-yl)methyl]amino}-1-piperidinyl)methyl]-1,2-dihydro-4H,9H-imidazo[1,2,3-ij]-1,8-naphthyridine-4,9-dione dihydrochloride] | < 2 µg/mL |
| O=c1ccc2ccc(=O)n3c2n1C[C@H]3CN1CCC(NCc2cc3c(cn2)OCCS3)CC1 [Example 6A, (1R)-1-({4-[(2,3-Dihydro[1,4]oxathiino[2,3-c]pyridin-7-ylmethyl)amino]-1-piperidinyl}methyl)-1,2-dihydro-4H,9H-imidazo[1,2,3-ij]-1,8-naphthyridine-4,9-dione hydrochloride] | < 2 µg/mL |
| O=c1ccc2ncc(=O)n3c2n1CC3CN1CCC(NCc2cc3c(cn2)OCCS3)CC1 (stereo not shown) [Example 20, 2-({4-[(2,3-Dihydro[1,4]oxathiino[2,3-c]pyridin-7-ylmethyl)amino]-1-piperidinyl}methyl)-1,2-dihydro-3H,8H-2a,5,8a-triazaacenaphthylene-3,8-dione hydrochloride] | < 2 µg/mL |

Source: patent publication US10702521B2, “Methods for treating neisseria gonorrhoeae infection with substituted 1,2-dihydro-2A,5,8A-triazaacenaphthylene-3,8-diones” (priority 2014, dated 2020)
